Experimental data: patent US7445894B2, “Compositions and methods for detection and isolation of phosphorylated molecules” (priority 2002, dated 2008)

Experiments:
[1] = target: T1, pDSIP (Oryctolagus cuniculus, UniProt P01158); experiment: Phosphopeptide detection on HydroGel microarray; conditions: monophosphorylated peptide, binding solution with gallium chloride
T1 construct: purchased SynPep Corporation
Method: The peptide was loaded in a two-fold dilution series from […] on the microarray.
Two peptides, Kemptide and pDSIP, were arrayed on to HydroGel coated slides (Perkin Elmer) from a source plate (384-well) with a concentration of 0.03125 to 2 mg/mL peptide in water. The amino acid sequence of Kemptide is LRRASLG (SEQ ID NO. 1, MW 771.9) the amino acid sequence of pDSIP is […] (SEQ ID NO. 2, MW 929.5), wherein the serine residue is substituted with PO2H. Arrays were spotted using a manual glass slide arrayer (V & P Scientific, San Diego, Calif.) fixed with 4 rows of 8 pins (32 total), ˜500 micron diameter spot size, […] horizontal pitch and 750 micron vertical pitch (pitch=center to center spacing of spots). The hand arrayer collected 6 nL of peptide from the source plate and transferred ˜6 nL to the array surface by direct contact. The resultant peptide concentration was 0.18 to 12 ng/spot. Peptides were arrayed in replicates of 6, resulting in an array of 84 spots. For specific detection of pDSIP, the phosphopeptide, slides were incubated for 1 hour on a rotator in 1 μM dye of compound 2 in buffer containing 0.5 M NaCl, 20% 1,2-propanediol, 1 μM GaCl3, and 0.05 M NaOAc, pH 4.0. Slides were then washed for 1 hour on a rotator in 0.05 M NaOAc, pH 4.0, containing 10% methanol followed by a 15-minute water wash. […]

[2] = target: T2, ovalbumin (Gallus gallus, UniProt P01012); experiment: Fluorescence polarization of Compound 2-Ga3+ with phosphoprotein; assay type: binding; conditions: 1.0 μM Compound 2, 100 μM ovalbumin plus 1 μM gallium chloride
T2 construct: purchased Sigma Chemical Company A-7641
T2 sequence (P01012 1-386): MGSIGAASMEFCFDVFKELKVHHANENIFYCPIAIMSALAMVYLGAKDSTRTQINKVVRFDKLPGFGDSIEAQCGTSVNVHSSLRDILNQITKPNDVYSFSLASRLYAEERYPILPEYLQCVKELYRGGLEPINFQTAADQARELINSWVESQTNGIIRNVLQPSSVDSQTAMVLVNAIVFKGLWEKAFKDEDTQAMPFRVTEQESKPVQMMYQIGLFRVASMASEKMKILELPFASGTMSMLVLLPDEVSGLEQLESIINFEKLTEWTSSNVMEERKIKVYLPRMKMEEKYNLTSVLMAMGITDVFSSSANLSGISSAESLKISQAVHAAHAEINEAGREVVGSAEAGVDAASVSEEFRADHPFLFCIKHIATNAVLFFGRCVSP
Method: First, an assay was conducted with a (1) phosphoprotein (ovalbumin) and a (2) control non-phosphorylated protein (lysozyme). A modified binding solution containing 1.0 μM Compound 2 was incubated in 50 mM 2-(N-morpholino)ethanesulfonic acid (pH 3.0 to 3.5), 500 mM NaCl at room temperature in parallel to solutions containing, in addition, (a) 1 μM gallium chloride, (b) 100 μM lysozyme plus 1 μM gallium chloride, or (c) and 100 μM ovalbumin plus 1 μM gallium chloride. The fluorescence polarization of the resulting solutions was then measured in a fluorescence spectrophotometer with excitation at 530 nm and emission at 545 to 700 nm. The integrated polarized emission spectra yielded anisotropy “r values” of: r=0.10+/−0.003+/−0.02 (Compound 2 plus gallium); r=0.10+/−0.002 (Compound 2 plus lysozyme non-phosphorylated control); r=0.34+/−0.002 (Compound 2 plus gallium plus ovalbumin), indicating phosphorylation-dependent binding of the Compound 2 to this phosphoprotein (see FIG. 10A)

[3] = target: T1, pDSIP; experiment: Total phosphopeptide detection on microarray with binding solution; conditions: 1 μM Compound 2, 1 μM GaCl3, pH 4.0
Method: (A) Three pairs of peptides, the phosphorylated and the non-phosporylated forms of Kemptide, pp60 c-src and DSIP, were arrayed on to HydroGel coated slides (Perkin Elmer) from a source plate (384-well) with a concentration of 0.95 μg/ml-0.5 mg/ml peptide in water, using the BioChip Arrayer™ (Perkin Elmer) as described in Example 20. For specific detection of the phosphopeptides on the array, the slides were incubated for 45 minutes on a rotisserie in a binding solution comprising 1 μM Compound 2, in buffer containing 0.5 M NaCl, 20% 1,2 propanediol, 1 μM GaCl3, and 0.05 M sodium acetate, pH 4.0. Slides were then washed three times for 15 minutes on a rotisserie in 0.05 M sodium acetate, pH 4.0, containing 4% acetonitrile followed by a 15 minute water wash. Slides were then spun briefly in a microarray high-speed centrifuge affixed with a rotor with a slide holder (Telechem) at ˜6000 rpm to remove excess liquid. After slides were dry, the arrays were imaged using the ScanArray® 5000 XL Microarray Analysis System (Packard Instrument Co., Meriden, Conn.) using the 543.5 nm laser and 570 nm emission filter. […] Using the 543.5 nm excitation and 570 nm emission filter, there was no signal detected. Using the 632.8 nm excitation and 670 nm emission filter, pp60 c-src (pY) was specifically detected to a sensitivity of 5.2 pg.

amount detectable on HydroGel microarray [1]: 300 fg | anisotropy r value [2]: 0.34+/−0.002 | amount specifically labeled on microarray [3]: 1.3 to 2.6 pg
Substance: Rhod-5F [Compound 2]
